{"source": "patent US20150037408A1", "about": "“Delayed Release Pharmaceutical Compositions of Salsalate” (priority 2012, published 2015)", "origin": "cited, not measured here", "key": {"[1]": {"conditions": "3 grams daily (two 750-mg tablets twice daily) for 15 days"}, "[2]": {"conditions": "patients with osteoarthrosis of the hip or knee"}}}
{"smiles": "O=C(Oc1ccccc1C(=O)O)c1ccccc1O", "note": "[Salsalate, 2-hydroxybenzoic acid 2-carboxyphenyl ester]", "values": [{"measurement": "efficacy and safety in arthritic disease", "setting": "[1]", "value": "effective and safe in ameliorating the symptoms of arthritic disease"}, {"measurement": "clinical improvement versus aspirin", "setting": "[2]", "value": "comparable clinical improvement to that with aspirin"}, {"measurement": "side-effects and faecal occult blood loss versus aspirin", "setting": "[2]", "value": "significantly superior to aspirin"}]}
